Experimental findings from ChEMBL document CHEMBL1141806, “Gloeolactone, a New Epoxy Lactone from a Blue-Green Alga” (J Nat Prod, 1998) are described below.

Calls of active or inactive are those of the source. No cut-off for these calls is given here.

Data set [1] deals with Vibrio harveyi. Nature of the data set: Antimicrobial activity against Vibrio harveyi. The format is functional, organism-based.
Data set [2] in a line: Toxicity against brine shrimp at 125 ug/mL. The format is organism-based. The conditions noted are these: artemia, in vivo; read-out: Activity.

As for `CC/C=C\C[C@H]1O[C@@H]1/C=C/C1CCCCCCCC(=O)O1` (some centres not stated) [GLOEOLACTONE], the result in data set [1] was inactive. The mortality at 125 ug/mL in data set [2] was determined as 100%.
